Here are results for 23 compounds from US12162858B2, “Quinoline derivatives as inhibitors of AXL/MER RTK and CSF1R” (QURIENT CO., LTD., priority 2018, dated 2024).

Some results are limits rather than exact numbers.

Experiment [1] has as its system CSF1R (M-NFS-60 cells). Briefly: Cell Titer-Glo viability assay using M-NFS-60 cells. Format: cell-based. To be noted: Mus musculus, read-out: Cellular CSF1R activity by M-NFS-60 viability assay (IC50 activity range). How it is done:
M-NFS-60 cells were cultured in RPMI-1640 medium containing 10% FBS, 0.05 mM 2-Mercaptoethanol, penicillin (100 U/ml)/streptomycin ([…]) and supplemented with 62 ng/ml recombinant human M-CSF at 37° C./5% CO2. Aliquots of the cells were seeded into a 96-well plate (2×10^5 cells in 100 μl/well) and then incubated at 37° C./5% CO2 1 h. Dissolve compound in 100% DMSO to make 10 mM stock solutions (Aliquots stored in the Nitrogen Cabinet). Dilute 10 mM compounds solutions for 2-fold in 100% DMSO to get 5 mM solutions (10 μl+10 μl DMSO), and then make a 3-fold serial dilution (10 μl+20 μl DMSO) for 10 doses. For reference compounds: Dilute 10 mM compounds solutions for 20-fold in 100% DMSO to get 0.5 mM solutions (2 μl+38 μl DMSO), and then make a 3-fold serial dilution (10 μl+20 μl DMSO) for 8 doses. The 96-well plate was equilibrated at room temperature for 30 min. 50 μl of CellTiter-Glo® Reagent added to each well and mixed for 2 min on an orbital shaker to induce cell lysis. The 96-well plate was incubated at room temperature for 10 min to stabilize luminescent signal. Luminescent was measured […] by EnVison plate reader. Calculations and Formulas: The following calculations and formulas are used for data analysis using XL Fit software: The curve fitting was made using the Sigmoidal Dose-Response Model (Fit model, 205).
On the technique in general: ATP-based viability assays read luminescence as a measure of living cells.

In experiment [2] the target is T1, Axl (Homo sapiens, UniProt P30530).
T1 sequence (P30530 26-894): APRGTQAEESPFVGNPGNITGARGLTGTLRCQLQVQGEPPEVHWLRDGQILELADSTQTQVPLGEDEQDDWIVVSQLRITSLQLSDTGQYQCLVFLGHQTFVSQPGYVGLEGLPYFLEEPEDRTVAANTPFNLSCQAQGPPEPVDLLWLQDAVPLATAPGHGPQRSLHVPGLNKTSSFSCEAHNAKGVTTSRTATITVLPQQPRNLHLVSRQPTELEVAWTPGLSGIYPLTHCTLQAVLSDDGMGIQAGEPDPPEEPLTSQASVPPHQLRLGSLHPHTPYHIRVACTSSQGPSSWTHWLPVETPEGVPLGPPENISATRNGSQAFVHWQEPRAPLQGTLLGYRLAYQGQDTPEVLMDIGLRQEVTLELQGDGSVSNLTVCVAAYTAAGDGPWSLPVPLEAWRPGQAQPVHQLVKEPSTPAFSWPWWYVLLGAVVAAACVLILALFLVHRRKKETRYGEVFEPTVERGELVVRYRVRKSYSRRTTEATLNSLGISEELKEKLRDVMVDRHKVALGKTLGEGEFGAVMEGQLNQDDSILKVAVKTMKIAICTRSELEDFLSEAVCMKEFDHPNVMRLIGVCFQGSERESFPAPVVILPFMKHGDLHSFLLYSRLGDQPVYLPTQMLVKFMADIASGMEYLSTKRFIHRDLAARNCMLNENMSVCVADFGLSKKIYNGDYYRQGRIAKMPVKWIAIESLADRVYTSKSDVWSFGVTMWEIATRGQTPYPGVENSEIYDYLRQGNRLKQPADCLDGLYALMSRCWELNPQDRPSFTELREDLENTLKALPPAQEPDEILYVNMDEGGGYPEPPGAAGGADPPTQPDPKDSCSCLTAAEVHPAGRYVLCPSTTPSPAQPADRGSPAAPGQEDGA
The experiment in a line: Cellular Axl inhibition ELISA (p-Axl, Gas6-induced) using H1299 cells. Type of experiment: cell-based. To be noted: read-out: Cellular Axl activity by H1299 Elisa (IC50). Set-up: especially H1299 cell endogenously expresses Axl; endogenous in cells; host or cells: H1299. How it is done:
Axl is expressed in several of malignant cancer cells; especially H1299 cell endogenously expresses Axl; and an increased phosphorylation of Axl (p-Axl) can be observed, when induced by the Axl ligand, Ga6.
The H1299 cells should be 40-80% confluent in the cell culture flask. Then cells are washed with DPBS and trypsinized. After centrifugation, the cell pellet is re-suspended with pre-warmed culture medium (RPMI1640, 10% FBS) and cells are separated by pipetting 6 times up and down with a 10 ml serological pipette. The cell suspension was diluted to a final concentration of 1.25×10^5 cells/ml. Then 80 μl/well cell suspension is added to the plate. Cell-plates are incubated at 37° C./5% CO2 overnight. Compounds were dissolved by DMSO to 10 mM, and kept in nitrogen cabinet. Prepare the compounds stock plate, the reference compounds concentration starts at 0.50 mM (5 μl+95 μl DMSO), and the tested compounds start at 1.5 mM (6 μl+34 μl DMSO); Then make a 3-fold dilution series (10 doses) compounds. Then dilute compounds by the medium in the mid plate (2 μl compounds+198 μl medium). Transfer 20 μl diluted compounds from mid plate to the cell coated plate. Cell-plates are incubated at 37° C./5% CO2 for 24 h. Add 25 μl of Human Gas6 (1000 ng/ml) to 96-well plate; the final concentration of Human Gas6 is 200 ng/ml. Incubate the plates at 37° C./5% CO2 for 1 h. Remove medium and wash cells once with 300 ul/well ice-cold 1×PBS. Then remove PBS and add 100 μl/well ice-cold 1× Cell Lysis Buffer to 96-well plate. The plate is shaken for 40 min at 4° C. Then plates can be stored at −20° C. After the micro-wells strips have reached room temperature, break off the required number of micro-wells. Place the micro-wells in the strip holder. Unused micro-wells must be resealed and stored at 4° C. immediately. Add 60 μl of cell lysate to the appropriate well. Seal with tape and press firmly onto top of micro-wells. Incubate the plate at 37° C. for 2 h. Gently remove the tape and wash wells 5 times with 1× Wash Buffer, 300 μl each time for each well. Add 100 μl of reconstituted Detection Antibody (green color) to each well. Seal with tape and incubate the plate at 37° C. for 1 h. Repeat wash procedure. Add 100 μl of reconstituted HRP Linked secondary antibody to each well. Seal with tape and incubate the plate at 37° C. for 30 min. Repeat wash procedure. Add 100 μl of TMB Substrate to each well. Seal with tape and incubate the plate at 37° C. for 15 min. Add 100 μl of STOP Solution to each well. Shake gently for a few seconds. Read absorbance at 450 nm within 30 min after adding STOP Solution. Calculations and Formulas: The following calculations and formulas are used for data analysis using XL Fit software: The curve fitting was made using the Sigmoidal Dose-Response Model (Fit model, 205).

A word on the IC50: it is the point on the concentration scale where inhibition reaches its midpoint. With `COc1cc2nccc(Oc3ccc(NC(=O)c4nn(C5CC5)cc4OCC4COC4)nc3)c2cc1OC` [Compound 143], the concentration for half-maximal inhibition (IC50) in experiment [1] is 1 to 10 µM; in experiment [2], < 0.5 µM.

Consider `COc1cc2nccc(Oc3ccc(NC(=O)c4nn(C5CC5)cc4OCC4CNC4)nc3)c2cc1OC` [Compound 144], for which the 50% inhibitory concentration (IC50) in experiment [1] was ≥ 10 µM; in experiment [2], ≥ 1 µM.

For the compound `COc1cc2nccc(Oc3ccc(NC(=O)c4nn(C5CC5)cc4NCC(F)(F)F)nc3)c2cc1OC` [Compound 145], the IC50 was < 1 µM in experiment [1] and < 0.5 µM in experiment [2].

As to `COc1cc2nccc(Oc3ccc(NC(=O)c4nn(C5CC5)cc4NCCC(F)(F)F)nn3)c2cc1OC` [Compound 146], the IC50 in experiment [1] is 1 to 10 µM; in experiment [2], < 0.5 µM.

Regarding `COc1cc2nccc(Oc3ccc(NC(=O)c4nn(C5CC5)cc4OC(C)C)nn3)c2cc1OC` [Compound 147], the IC50 in experiment [1] is 1 to 10 µM; in experiment [2], < 0.5 µM.

Regarding `COc1cc2nccc(Oc3ccc(NC(=O)c4nn(C5CC5)cc4NCC(F)(F)F)nn3)c2cc1OC` [Compound 148], the IC50 in experiment [1] was 1 to 10 µM; in experiment [2], < 0.5 µM.

In the case of `COc1cc2nccc(Oc3ccc(NC(=O)c4nn(C5CC5)cc4OCC4CCC4)nn3)c2cc1OC` [Compound 149], the IC50 in experiment [1] was 1 to 10 µM; in experiment [2], < 0.5 µM.

`COCCOc1cn(CC(C)O)nc1C(=O)Nc1ccc(Oc2ccnc3cc(OC)c(OC)cc23)cn1` (stereo not shown) [Compound 150]: the IC50 in experiment [1] is 1 to 10 µM; in experiment [2], < 0.5 µM.

For `COc1cc2nccc(Oc3ccc(NC(=O)c4nn(CC(C)O)cc4OC(C)C)nc3)c2cc1OC` (stereo not shown) [Compound 151], the values for the half-inhibitory concentration (IC50) in experiment [1] and in experiment [2] were < 1 µM and < 0.5 µM, respectively.

Consider `COc1cc2nccc(Oc3ccc(NC(=O)c4nn(CC(C)O)cc4OCCF)nc3)c2cc1OC` (stereo not shown) [Compound 152], for which the half-maximal inhibitory concentration (IC50) is < 1 µM in experiment [1] and 0.5 to 1 µM in experiment [2].

As for `COc1cc2nccc(Oc3ccc(NC(=O)c4nn(CCOC5CC5)cc4OCC(F)(F)F)nc3)c2cc1OC` [Compound 153], the IC50 in experiment [1] was < 1 µM; in experiment [2], < 0.5 µM.

Regarding `CNCCn1cc(OCC(F)(F)F)c(C(=O)Nc2ccc(Oc3ccnc4cc(OC)c(OC)cc34)cc2F)n1` [Compound 154], the results for the half-inhibitory concentration (IC50) in experiment [1] and in experiment [2] were 1 to 10 µM and 0.5 to 1 µM, respectively.

`CNCCn1cc(OCC(F)(F)F)c(C(=O)Nc2ccc(Oc3ccnc4cc(OC)c(OC)cc34)c(F)c2)n1` [Compound 155]: the IC50 is 1 to 10 µM in experiment [1] and < 0.5 µM in experiment [2].

`CNCCn1cc(OCC(F)(F)F)c(C(=O)Nc2ccc(Oc3ccnc4cc(OC)c(OC)cc34)c(C)c2)n1` [Compound 156]: the IC50 in experiment [1] is 1 to 10 µM; in experiment [2], ≥ 1 µM.

Consider `COc1cc2nccc(Oc3ccc(NC(=O)c4nn(C5CCN(C)C5)cc4OCC(F)(F)F)nn3)c2cc1OC` (stereo not shown) [Compound 157], for which the IC50 was 1 to 10 µM in experiment [1] and ≥ 1 µM in experiment [2].

In the case of `CCCn1cc(NCCC(F)(F)F)c(C(=O)Nc2ccc(Oc3ccnc4cc(OC)c(OC)cc34)cn2)n1` [Compound 158], the IC50 in experiment [1] was 1 to 10 µM; in experiment [2], < 0.5 µM.

With `CCCn1cc(OCC2CNC2)c(C(=O)Nc2ccc(Oc3ccnc4cc(OC)c(OC)cc34)cn2)n1` [Compound 159], the figures for the 50% inhibitory concentration (IC50) in experiment [1] and in experiment [2] were ≥ 10 µM and ≥ 1 µM, respectively.

`CNCCOc1cn(C2CC2)nc1C(=O)Nc1ccc(Oc2ccnc3cc(OC)c(OC)cc23)nn1` [Compound 160]: the values for the half-inhibitory concentration (IC50) in experiment [1] and in experiment [2] were ≥ 10 µM and ≥ 1 µM, respectively.

`COc1cc2nccc(Oc3ccc(NC(=O)c4nn(C5CC5)cc4OCC4COC4)nn3)c2cc1OC` [Compound 161]: the half-maximal inhibitory concentration (IC50) in experiment [1] was 1 to 10 µM; in experiment [2], < 0.5 µM.

Regarding `COc1cc2nccc(Oc3ccc(NC(=O)c4nn(C5CC5)cc4OCC(F)F)nn3)c2cc1OC` [Compound 162], the IC50 in experiment [1] is 1 to 10 µM; in experiment [2] it was < 0.5 µM.

Take `COc1cc2nccc(Oc3ccc(NC(=O)c4nn(CC(C)O)cc4OCC4CCC4)nc3)c2cc1OC` (stereo not shown) [Compound 163]: the IC50 in experiment [1] is 1 to 10 µM; in experiment [2] it was < 0.5 µM.

Take `CCCn1cc(OCC2CCOCC2)c(C(=O)Nc2ccc(Oc3ccnc4cc(OC)c(OC)cc34)cn2)n1` [Compound 164]: the half-maximal inhibitory concentration (IC50) in experiment [1] is ≥ 10 µM; in experiment [2], < 0.5 µM.

Turning to `CCCn1cc(OCCN(C)C)c(C(=O)Nc2ccc(Oc3ccnc4cc(OC)c(OC)cc34)c(F)c2)n1` [Compound 165], the 50% inhibitory concentration (IC50) in experiment [1] is 1 to 10 µM; in experiment [2], < 0.5 µM.
